Experimental findings from US20080221074A1, “Drug Screen and Treatment Method” (priority 2006, published 2008) are described below.

Series [1] concerns human T lymphocytes (PBMC). Briefly: human mixed lymphocyte reaction (MLR). In kind it is cell-based. The settings on record: 300 nM or 30 nM. An excerpt: Human mixed lymphocyte reaction (MLR). The capacity of 3β,16α-dihydroxy-17-oxoandrostane, 3β,17β-dihydroxy-16-oxoandrostane, 17α-ethynylandrost-5-ene-3β,7β,17β-triol, and 17β-aminoandrost-5-ene-3β-ol to affect antigen specific stimulation in which human T lymphocytes respond to a specific foreign antigen (major histocompatibility complex).
Blood samples were obtained from 3 (2 males, […]) fasting, healthy human volunteers of 23-31 years old. […] The subjects were bled between 9 and 10 AM to limit possible fluctuations in the circulating levels of hormones or cytokines that could have influenced the in vitro responses of their lymphocytes. Peripheral blood mononuclear cells (PBMC) were isolated by centrifugation on Ficoll-Hypaque (density 1.077, Biochrom AG, Berlin, Germany) gradients and resuspended in culture medium (RPMI 1640 supplemented with 2 mM L-glutamine, penicillin (100 U/mL) and streptomycin ([…]) (Invitrogen s.rl., Milan, Italy). Autologous (responder) inactivated plasma was used at 10%. Five hundred thousand responder PBMC (PBMCr) and 500,000 allogeneic irradiated (30 Gy) stimulator PBMC (PBMCs) were mixed at a ratio of 1:1 in 200 μL medium and cultured for 6 days in flat bottom 96 well plates (Nunc, Roskilde, Denmark) at a concentration of 300 nM or 30 nM for each of the 4 compounds. The compounds were dissolved in ethanol and then diluted to the desired concentration with culture medium leading to a final solution containing 0.01% of ethanol. This vehicle was used as control. Controls also included PBMCr and PBMCs cultured separately. During the last 8 hours of the culture period the PBMC were pulsed with […] [^3H] thymidine (Amersham, Milan, Italy). The cells were then harvested and radioactivity incorporation measured with a beta cell counter. The mean cpm of quadruplicate wells was calculated. Proliferation of T cells was expressed as a stimulation index: SI=cpm (PMBCs xPBMCr)/cpm (PBMCr)+cpm (PBMCs). Statistical analysis was performed using the Student's t test. The cpm obtained from quadruplicate of each test compound were compared to proliferative responses obtained in control PBMCr and PBMCs cultured in the presence of the vehicle. Differences were considered significant at p<0.05.

Series [2] has as its system progressive ischemia after thermal injury of the ear. Nature of the series: thermal injury model using mouse ear tissue. The note with it: injection in propylene glycol after burn. In kind it is in vivo, Balb/c mice. How it is done: A thermal injury model using mouse ear tissue was used to characterize compounds for their capacity to treat inflammation associated with thermal trauma. […] Groups of Balb/c mice, approximately nine weeks old were given an identifying mark and then divided into control and treated subgroups. The thickness of the ear to be immersed in hot water was recorded, and then the entire ear of the anesthetized mouse was dipped into 52° C. water for 24 seconds. Each mouse was returned to its cage after an injection of either the propylene glycol vehicle (control) or 100 mg of compound in propylene glycol. Ear swelling changes were monitored on individual mice at pre-burn, and at various times after thermal injury. Ear swelling changes were monitored on individual mice at pre-injury and at 1, 3, 6, 9,12, 18, 24 and 48 hours after thermal injury. Animals were treated with 100 mg of dehydroepiandrosterone (DHEA) dissolved in propylene glycol.

For a further series, the system named is EAE. Briefly: experimental allergic encephalomyelitis (EAE), PLP 139-151. In kind it is in vivo, female SJL/J mice. The note with it: 5 mg/kg daily oral gavage; through day 26. An excerpt:
Treatment of autoimmune neurodegeneration. Three compounds, 17β-aminoandrost-5-ene-3β-ol, 17β-dimethylaminoandrost-5-ene-3β-ol and 17β-methylaminoandrost-5-ene-3β-ol were characterized for their capacity to ameliorate experimental allergic encephalomyelitis (EAE) in mice. This demyelinating condition is extensively used as a model for multiple sclerosis in humans and for testing of new therapies for treating multiple sclerosis, e.g., B. F. Bebo Jr. et al., J. Neurosci. Res. 52:420-426 1998; R. R. Voskuhl et al., Neuroscientist, 7:258-270 2001; H. Offner et al., J. Neuroimmunol., 130:128-139 2002.
In this protocol, the compounds were administered to female SJL/J mice by oral gavage at the onset of disease symptoms. An antigen was used to initiate the EAE condition in the mice. […] Immunization with this peptide antigen initiates an autoimmune Thl mediated demyelinating disease of the central nervous system. The antigen was prepared by solid phase synthesis and purified by high-performance liquid chromatography. […] The immunization protocol was subcutaneous injection over four sites on the hind flank on day 0. After immunization. the mice were assessed daily for clinical signs of EAE using the following scale: 0=no clinical signs or symptoms; 1=limp tail; 2=mild hind limb weakness and limp tail; 3=moderate hind limb weakness and limp tail or mild ataxia; 4=severe hind limb weakness and mild forearm weakness with moderate ataxia; 5=paraplegia with no more than moderate forelimb weakness; 6=paraplegia with severe forelimb weakness or severe ataxia or moribund condition.
Mice in the vehicle control group began to show observable symptoms of EAE at about 10-11 days after immunization with the PLP antigen, which is typical for the EAE disease model. The animals were dosed daily with 17β-aminoandrost-5-ene-3β-ol, 17β-dimethylaminoandrost-5-ene-3β-ol or 17β-methylaminoandrost-5-ene-3β-ol by oral gavage beginning at day 1, which was 1 day after immunization.

The next series has as its system NF-κB. Nature of the series: inhibition of NF-κB activation in NF-κB-bla THP-1 cells after LPS stimulation. In kind it is cell-based, human. The note with it: Homo sapiens, THP-1. The text has this: Inhibition of NF-κB in vitro. […] Activation of NF-κB increases expression of a number of genes that mediate inflammation. This protocol used human THP-1 cells, which are human mononuclear blood cells with a monocyte phenotype. The cell line, referred to as NF-κB-bla THP-1, contained a β-lactamase reporter gene under the control of the NF-kB response element (Invitrogen, CellSensor™, product No. K1176). In this cell line, the β-lactamase reporter gene is stably integrated in the THP-1 cells. This cell line was used to detect agonists or antagonists of the NF-κB signaling pathway. These NF-κB-bla THP-1 cells respond to the presence of tumor necrosis factor alpha (TNFα) or bacterial lipopolysaccharide (LPS) by increased expression of the β-lactamase reporter gene. The level of β-lactamase enzyme activity was measured by fluorescence resonance energy transfer ratiometric detection. TNFα and LPS are both potent inflammation-inducing agents that activate NF-κB in THP1 cells. In this assay, compounds that decrease NF-κB activity, and thus β-lactamase, in the presence of TNFα or LPS are exerting an anti-inflammation activity.
The NF-κB-bla THP-1 cells were maintained by passaging or feeding as needed. […] The cells were plated at 20,000 cells/well in a 384-well Black-wall, clear bottom assay plates (Costar#3712-TC low fluorescence background plates) approximately 24 hours before adding either TNFα at 10 ng/mL or LPS at 0.2 ng/mL to activate NF-κB.
The assays were usually conducted 2-4 times for each compound and the values shown below are averages for each compound.

For series [3], the system named is ionizing radiation exposure. Briefly: survival after lethal total body irradiation (10 Gy). In kind it is in vivo, female B6D2F1 mice. The protocol:
Treatment of ionizing radiation exposure. The effect of selected F1Cs on survival of lethally-irradiated female B6D2F1 mice were compared to control animals treated with vehicle alone. […] For Group 4, test article was administered as a 50 μL volume, by intramuscular injection for three consecutive days. The formulation was a a suspension containing 0.1% w/v carboxymethyl-cellulose, 0.9% w/v sodium chloride and 0.05% v/v phenol. The formulations were agitated to uniformly resuspend the Fl C before syringing, and injected into animals within a few minutes of drawing into the syringe to prevent settling in the syringe.
The groups of animals were treated as follows. […] The number of surviving animals is shown for day 6, 7, 12 and 21.

Series [4] relates to insulin sensitivity in db/db diabetic mice. Nature of the series: hyperinsulinemic-euglycemic clamp. In kind it is in vivo. The settings on record: ^14C-2-deoxyglucose; p<0.05. How it is done:
Glucose lowering in 8 week old db/db diabetic mice. The hyperinsulinemic-euglycemic clamp protocol was conducted to measure insulin sensitivity in vivo. In this procedure, insulin was administered to raise the insulin concentration while glucose was infused to maintain euglycemia or a fixed, normal blood glucose level (about 180 mg/dL). […] The objective of this protocol was to investigate characterize the capacity of 17α-ethynylandrost-5-ene-3β,7β,17β-triol and androst-5-ene-3β,7β,16α,17β-tetrol to ameliorate systemic insulin resistance and improve whole body glucose disposal in the hyperinsulinemic-euglycemic clamp model. The degree of skeletal muscle and hepatic insulin sensitivity and tissue specific glucose uptake were also assessed. The animals were dosed daily by oral gavage for 14 days. On Day 10 of treatment catheters were implanted in the carotid artery and jugular vein. On the day of the clamp (day 14) the compound was administered at 7:30 am.
Body weight and glucose concentration were assessed on day 0, 7 and day 14 of treatment. On day 14 a euglycemic hyperinsulinemic clamp was performed. Food was removed at 7:30 am at 10:30 a primed continuous infusion of [3-^3H]-glucose (0.05 μCi/min). A baseline blood sample was taken at 12:50 (−10 min) and at 1:00 (0 min) a euglycemic hyperinsulinemic clamp was initiated by administering 10 mU /kg/min of insulin. Glucose was infused at a variable rate to clamp the glucose concentration at ˜180 mg/dl. A bolus of [^14C]-2deoxyglucose was given at the end of the study to assess tissue specific glucose uptake. Plasma ^14C 2-deoxyglucose was assessed at 122, 125, 130, 135, 145 min. […]
Analysis was conducted as follows. Plasma samples were deproteinized with Ba(OH)2 (0.3 N) and ZnSO4 (0.3 N), dried and radioactivity was assessed on scintillation counter (Packard TRICARB 2900 TR, Meriden, Conn.). […] One supernatant was directly counted to determine radioactivity from both [14C] […] A second aliquot was treated with Ba(OH)2 and ZnSO4 to remove ^14C DGP and any tracer incorporated into glycogen and then counted to determine radioactivity from free [^14C]DG(2). [^14C]DGP was calculated as the difference between the two aliquots. […] Rg, an index of tissue specific glucose uptake was calculated as previously described (E.W. Kraegen et al., Am. J. Physiol., 248:E353-E362, 1985). Whole body glucose turnover was calculated as the ratio of the ^3H glucose infusion rate (dpm/kg/min) and arterial plasma glucose specific activity (dpm/mg). Endogenous glucose production was calculated as the difference between the whole body glucose turnover and the exogenous glucose infusion rate (R. N. Bergman et al., Endocr. Rev., 6:45-86, 1985).

Turning to `C[C@]12CC[C@H]3[C@@H](CCC4C[C@@H](O)CC[C@@]43C)[C@@H]1CC(=O)[C@@H]2O` (stereo partly drawn) [3β,17β-dihydroxy-16-oxoandrostane], in series [1], the “immune suppression (inhibition of the MLR)” value is “not appreciably immune suppressive”.
With `C[C@]12CC[C@H](O)CC1=CC[C@@H]1[C@@H]2CC[C@]2(C)C(=O)[C@H](Br)C[C@@H]12` [16α-bromodehydroepiandrosterone], the “protection against progressive ischemia after thermal injury to the ear” value (from here on “protection against progressive ischemia”) in series [2] is “protected treated animals against much of the ischemic consequences”.
As to `C[C@]12CC[C@H](O)CC1=CC[C@@H]1[C@@H]2CC[C@]2(C)C(=O)[C@H](Cl)C[C@@H]12` [16α-chlorodehydroepiandrosterone], the “protection against progressive ischemia” value in series [2] was “only slightly protective”.
As to `C[C@]12CC[C@H](O)CC1=CC[C@@H]1[C@@H]2CC[C@]2(C)C(=O)[C@H](O)C[C@@H]12` [16α-hydroxydehydroepiandrosterone], in series [2], the “protection against progressive ischemia” value is on record as “less protective”.
As to `CN(C)[C@H]1CC[C@H]2[C@@H]3CC=C4C[C@@H](O)CC[C@]4(C)[C@H]3CC[C@]12C` [17β-dimethylaminoandrost-5-ene-3β-ol], in the series with EAE, the “clinical severity of EAE symptoms” value is “reduced the clinical severity”.
Same read-out and setting: for `CN[C@H]1CC[C@H]2[C@@H]3CC=C4C[C@@H](O)CC[C@]4(C)[C@H]3CC[C@]12C` [17β-methylaminoandrost-5-ene-3β-ol] the value was “reduced the clinical severity”.
One may read the IC50 as the concentration that gives 50% inhibition. Turning to `C[C@]12CC[C@H]3[C@@H](CC=C4C[C@@H](O)CC[C@@]43C)[C@@H]1CC[C@@H]2O` [androst-5-ene-3β,17β-diol], in series [2], the “protection against progressive ischemia” value is “protected treated animals against much of the ischemic consequences”. This compound also gave an IC50 with NF-κB of 0.014 nM. Moreover, the “number of surviving animals (groups of 12)” value is given as 12 in series [3] (0.6 mg i.m. daily for 3 days, day 6); 12 in series [3] (0.6 mg i.m. daily for 3 days, day 7); 11 in series [3] (0.6 mg i.m. daily for 3 days, day 12); 9 in series [3] (0.6 mg i.m. daily for 3 days, day 21); 12 in series [3] (0.6 mg s.c. daily for 3 days, day 6); 11 in series [3] (0.6 mg s.c. daily for 3 days, day 7). Also, the “number of surviving animals (groups of 12)” value in series [3] (0.6 mg s.c. daily for 3 days, day 12) is 10; in series [3] (0.6 mg s.c. daily for 3 days, day 21), 7; in series [3] (3.0 mg s.c. daily for 3 days, day 6) it was 12; in series [3] (3.0 mg s.c. daily for 3 days, day 7) it was 12; in series [3] (3.0 mg s.c. daily for 3 days, day 12) it was 9; in series [3] (3.0 mg s.c. daily for 3 days, day 21), 7.
As to `CN(CCOc1ccc(CC2SC(=O)NC2=O)cc1)c1ccccn1.O=C(O)/C=C\C(=O)O` (stereo not drawn) [rosiglitazone, rosiglitazone maleate, reference compound], the “glucose uptake in the gastrocnemius muscle” value in series [4] was “more effective”.
